Patent US10934255B2, “Nrf and HIF activators/HDAC inhibitors and therapeutic methods using the same” (THE BOARD OF TRUSTEES OF THE UNIVERSITY OF ILLINOIS, priority 2017, dated 2021)

Columns and labels:
primary cortical neurons = assay: HCA-induced neurodegeneration assay (oxidative stress, glutathione depletion); format: cell-based; settings: at 0.5 μM; protection declined at higher concentrations due to neurotoxicity
Experimental: FIG. 1 contains bar graphs of % cell survival vs. concentration for HCA evaluation of II-ING-66 using the glutathione depletion neurotoxicity model of oxidative stress. Immature primary cortical neurons were treated with the test compound alone or in the presence of HCA. Cell viability was assessed at 24 h using the MTT assay. Bar plot represents percentage control mean±SEM of viable cells (n=3). *p<0.05 and **p<0.01 compared to control (DMSO) (n=3/group). HCA oxidative stress assay.
Compound II-ING-66 was examined in a model of oxidative stress induced by homocysteic acid (HCA), where neurons were treated with the test compound alone or in the presence of HCA.
It has been shown that HDAC6 inhibition protects against neuronal degeneration and stimulates neurite outgrowth in dorsal root ganglion neurons, therefore indicating methods of treating CNS diseases. Accordingly, present compounds were examined in a model of oxidative stress induced by homocysteic acid (HCA). This model leads to depletion of glutathione, the major intracellular antioxidant. HDAC6 inhibition rescues neuronal death in this model, possibly by causing hyperacetylation of peroxiredoxins. […] (A. P. Kozikowski et al., J. Med. Chem. 2007, 50, 3054-61.) […]

[1] = test system: prostate cancer (LNCaP) cells; settings: via peroxiredoxin acetylation, published results; cited from earlier work
α-tubulin acetylation = settings: published results; cited from earlier work

Compound	Neuroprotection in HCA-induced neurodegeneration (primary cortical neurons)	Concentration protecting from hydrogen peroxide-induced death [1] [µM]	Concentration inducing α-tubulin acetylation (α-tubulin acetylation) [µM]
CC(/C=C/C(=O)NO)=C\[C@@H](C)C(=O)c1ccc(N(C)C)cc1 [TSA, Trichostatin A]	moderately neuroprotective		
O=C(CCCCCCC(=O)Nc1ccc([C@H]2O[C@@H](CSc3nc(-c4ccccc4)c(-c4ccccc4)o3)C[C@@H](c3ccc(CO)cc3)O2)cc1)NO [Tubacin]		8	5
